# Reference: US20230251278A1, “ACQUISITION METHOD OF VALUE RELATING TO TRIGLYCERIDE METABOLIC CAPACITY, PRESENTATION METHOD OF DISEASE INFORMATION, PRESENTATION METHOD OF DISEASE DIFFERENTIATION INFORMATION, PRESENTATION METHOD OF THERAPY EFFICACY INFORMATION, PRESENTATION METHOD OF THERAPEUTIC EFFECT INFORMATION, TEST REAGENT …” (OSAKA UNIVERSITY, priority 2020, published 2023)
# Key:
# [1] = system: leucocytes (neutrophils, monocytes, lymphocytes); assay: Uptake and excretion of Alexa Fluor 680-BMPP by leucocytes of healthy individuals and primary TGCV patients (FACS); format: cell-based, human
# Description: 5.5 ml of whole blood collected from healthy individuals and patients using the blood collection tube containing heparin was added with the leucocyte separating agent (HetaSep, Veritas Corporation) in an amount of one fifth of the whole blood, leucocytes were collected according to a manufacturer's instruction, and the cells were resuspended in 2.1 ml of DMEM medium without serum (hereinafter, DMEM serum-free medium). Alexa Fluor™ 680-BMPP uptake ability and Alexa Fluor™ 680-BMPP excretion ability of the leucocytes were measured using 400 μl each as described below.
# 40 μl of the Alexa Fluor™ 680-BMPP or 40 μl of the Alexa Fluor™ 680 was added to 400 μl of the cell resuspension so that a final concentration of the Alexa Fluor™ 680-BMPP or the Alexa Fluor™ 680 was 0.067 μM, and a reaction for uptake the fluorescence-labeled substance was performed by standing at room temperature for 30 minutes. A sample for measurement immediately after the uptake was added with BD FACS Lysing Solution immediately after the reaction to be hemolyzed and then, subjected to FACS. On the other hand, as for a sample for measurement of excretion, the Alexa Fluor™ 680-BMPP or the Alexa Fluor™ 680 was removed from the sample by centrifugation at room temperature, cells were resuspended in 500 μl of DMEM serum-free medium, and the cells were allowed to stand at 37° C. for 2 hours to be subjected to an excretion reaction of the taken Alexa Fluor™ 680-BMPP or Alexa Fluor™ 680, then BD FACS Lysing Solution was added, and the sample was subjected to FACS in the same manner as the sample immediately after the uptake. FACS analysis was performed in the same manner as described in the experimental example 2, and for each of neutrophils, monocytes, and lymphocytes, fluorescence intensity of the sample immediately after uptake was compared with fluorescence intensity of the sample for measurement of excretion.
# [2] = system: leucocytes (neutrophils) of the case 1 patient; assay: Ability of leucocytes to excrete Alexa Fluor 680-BMPP before and after tricaprin treatment; format: in vivo, human
# Description: Next, the abilities for taking up and for excreting the Alexa Fluor™ 680-BMPP were compared using whole blood collected from the patients in the case 1 described in the above 6-2. before and after the tricaprin treatment.
# Preparation of the leucocyte and measurement of the abilities for taking up and for excreting the Alexa Fluor™ 680-BMPP using the leucocyte cells were performed according to the experimental examples.
# [3] = system: leucocytes (neutrophils, monocytes, lymphocytes); assay: Uptake of fluorescence-labeled BMPP by leucocytes in whole blood (FACS); format: cell-based, human; conditions: monocytes and lymphocytes, whole blood of healthy individual, 0.0074, 0.022, 0.067, 0.2 μM, room temperature 30 minutes
# Description: Each 200 μl of whole blood collected from a healthy individual using a blood collection tube containing heparin was used as a sample. As a fluorescent-labeled BMPP-added group, the Alexa Fluor™ 680-BMPP prepared in the experimental example 1 was added to the samples so that a final concentration of the Alexa Fluor™ 680-BMPP was 0.0074 μM, 0.022 μM, 0.067 μM, and 0.2 μM, respectively. As a negative control group, Alexa Fluor™ 680 NHS Ester hydrolysate (hereinafter, simply referred to as Alexa Fluor™ 680) was added to the samples so that a final concentration of the Alexa Fluor™ 680 was 0.0074 μM, 0.022 μM, 0.067 μM, and 0.2 μM, respectively. […]
# After the uptake is completed, 2 ml of BD FACS Lysing Solution (BD Biosciences) was added to the sample, and the mixture was allowed to stand at room temperature for 30 minutes to hemolyze erythrocytes, and then leucocytes were collected as precipitates by centrifugation at room temperature at 1500 rpm for 30 minutes, and resuspended in PBS to prepare a sample for FACS analysis. The FACS analysis was performed by preparing gates containing lymphocytes, monocytes, or neutrophils in advance by dot plots of forward-scattered light and side-scattered light using leucocytes prepared in the same manner without adding the Alexa Fluor™ 680-BMPP, and measuring the number of cells until […] cells were counted in the gate. […]
# [4] = system: leucocytes (neutrophils, monocytes, lymphocytes); assay: Influence of excretion time on Alexa Fluor 680-BMPP excretion amount (FACS); format: cell-based, human; conditions: leucocytes of two healthy individuals; 0.067 μM; 37° C.; histograms did not shift from 10 to 120 minutes
# Description: 6 ml of each whole blood collected from two healthy individuals using the blood collection tube containing heparin was added with the HetaSep (Veritas Corporation) in an amount of one fifth of the whole blood, leucocytes were collected according to the manufacturer's instruction, and the cells were resuspended in 2.1 ml of the DMEM serum-free medium. Alexa Fluor™ 680-BMPP uptake ability and Alexa Fluor™ 680-BMPP excretion ability of the leucocytes were measured using 400 μl each as described below.
# 40 μl of the Alexa Fluor™ 680-BMPP was added to 400 μl of the cell resuspension so that a final concentration of the Alexa Fluor™ 680-BMPP was 0.067 μM, and a reaction for uptake the Alexa Fluor™ 680-BMPP was performed by standing at room temperature for 30 minutes. A sample for measurement immediately after the uptake was added with BD FACS Lysing Solution immediately after the reaction to be hemolyzed and then, subjected to FACS. […] FACS analysis was performed in the same manner as described in the experimental example 2, and for each of neutrophils, monocytes, and lymphocytes, fluorescence intensities at each excretion time were compared each other.
# [5] = system: triglyceride deposit-type atherosclerosis of the coronary artery; assay: MCT dietary therapy: coronary artery CT evaluation of fat accumulated in coronary arteries; format: in vivo, human
# Description: A person with genetic ATGL (Adipose triglyceride lipase) deficiency. Since it was confirmed that the patient was suffering from triglyceride deposit-type atherosclerosis by coronary CT inspection, MCT dietary therapy was started. The patient ingested 6 to 9 g of tricaprin as the MCT per 1 day, 3 times a day after meals for 50 days.
# Before the start of the MCT dietary therapy and after 50 days from the start of the MCT dietary therapy, normal coronary artery CT was performed to acquire a three-dimensional DICOM image of the left anterior descending branch. The samples were resampled in 0.1 mm^3 of voxels and layer-by-layer coloring was performed based on intra-voxel CT values. Smoothing was performed between voxels. The layer-by-layer coloring was performed as follows.
# Light gray: between −25 HU to 0 HU (fat content is high) Middle gray 0 HU to 40 HU (fat content is medium) Dark gray: 40 HU to 125 HU (no fat) (iii) Results
# A person who has suffered from refractory angina pectoris for years. Even when a combination treatment of a plurality of antianginal drugs and statins or the like was performed, the angina pectoris was rather exacerbated. Since it was confirmed that the patient was suffering from triglyceride deposit-type atherosclerosis by coronary CT inspection, MCT dietary therapy was started. The patient ingested 1.5 g of tricaprin as the MCT per 1 day, 3 times a day after meals for 4 years.
# Before the start of the MCT dietary therapy and after 4 years from the start of the MCT dietary therapy, normal coronary artery CT was performed, and the layer-by-layer coloring of the inside of the left anterior descending branch was performed in the same manner as described in the case 1.
Molecule,"ability to excrete the Alexa Fluor 680-BMPP, primary TGCV patient versus healthy individuals ([1]; leucocytes, overall conclusion)","ability to excrete the Alexa Fluor 680-BMPP (leftward shift of fluorescence intensity) ([1]; lymphocytes of healthy individuals, 0.067 μM, excretion 37° C. 2 hours)","ability to excrete the Alexa Fluor 680-BMPP compared to healthy individuals ([1]; lymphocytes of primary TGCV patients, 0.067 μM, excretion 37° C. 2 hours)","ability to excrete the Alexa Fluor 680-BMPP (leftward shift of histogram) ([1]; neutrophils of healthy individuals, 0.067 μM, excretion 37° C. 2 hours)","ability to excrete the Alexa Fluor 680-BMPP compared to healthy individuals ([1]; neutrophils of primary TGCV patients, 0.067 μM, excretion 37° C. 2 hours)",ability for excreting the Alexa Fluor 680-BMPP compared to healthy individuals ([2]; leucocytes (neutrophils) of case 1 patient before the start of the treatment),uptake amount of the Alexa Fluor 680-BMPP (shift of fluorescence intensity histogram) [3],excretion time at which the taken Alexa Fluor 680-BMPP was sufficiently excreted (almost background) [4] [min],"effect on triglyceride deposit-type atherosclerosis of the coronary artery (coronary CT) ([5]; case 1: genetic ATGL deficiency, 6 to 9 g per day, 50 days)","effect on triglyceride deposit-type atherosclerosis of the coronary artery (coronary CT) ([5]; case 2: refractory angina pectoris, 1.5 g per day, 4 years)","diameter of the blood flow site (coronary CT) ([5]; case 2, 1.5 g per day, 4 years)",ability for excreting the Alexa Fluor 680-BMPP in the patient after the treatment ([2]; case 1 patient leucocytes after tricaprin (MCT dietary therapy) treatment)
15-phenyl-3-methylpentadenoic acid labeled with Alexa Fluor™ 680 [Alexa Fluor™ 680-BMPP],lower,demonstrated,reduced,sufficiently demonstrated,clearly reduced,clearly reduced,concentration dependent increase,10,–,–,–,–
CCCCCCCCCC(=O)OCC(COC(=O)CCCCCCCCC)OC(=O)CCCCCCCCC [tricaprin],–,–,–,–,–,–,–,–,regression,regression,significantly increased,restored to the same level as in healthy individuals
